From patent US7495104B2, “Quinoline or quinazoline derivatives inhibiting auto-phosphorylation of fibroblast growth factor receptors” (Kirin Beer Kabushiki Kaisha, priority 2001, dated 2009)

biological target: Bek (Homo sapiens, UniProt P21802); assay: Inhibitory activity against Bek-autophosphorylation using ELISA method in OCUM-2MD3 cells; assay type: cell-based; details: 1 hr with compound, read-out: IC50 (concentration necessary for inhibiting 50% of Bek-phosphorylation)
In short: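 Sandwich ELISA (anti-phosphotyrosine capture, anti-Bek detection, peroxidase, 450 nm) measured Bek autophosphorylation in OCUM-2MD3 lysates after 1 hr compound treatment at 37° C in 0.1% serum medium. IC50 derived by scaling between no-drug (100%) and excess positive control at 1000 nM (0%).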

Sequence of Bek (P21802 431-767 limits assumed): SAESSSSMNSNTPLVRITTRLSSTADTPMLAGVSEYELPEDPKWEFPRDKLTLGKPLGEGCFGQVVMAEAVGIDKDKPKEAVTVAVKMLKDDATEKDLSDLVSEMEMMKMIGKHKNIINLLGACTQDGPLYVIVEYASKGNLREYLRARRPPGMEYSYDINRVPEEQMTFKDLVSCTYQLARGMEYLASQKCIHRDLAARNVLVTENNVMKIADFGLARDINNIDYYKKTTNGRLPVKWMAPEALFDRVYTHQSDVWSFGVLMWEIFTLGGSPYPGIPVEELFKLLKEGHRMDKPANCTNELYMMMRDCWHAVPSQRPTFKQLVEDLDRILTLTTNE

| IC50 [nM] | Compound |
| --- | --- |
| 367 | COc1cc2c(Oc3ccc(Nc4ccc(C(C)(C)C)cc4)cc3Cl)ccnc2cc1OCCN1CCC(CCO)CC1 [Compound 313, 2-[1-(2-{4-[4-(4-Tert-butyl-phenylamino)-2-chloro-phenoxy]-6-methoxy-quinolin-7-yloxy}-ethyl)-piperidin-4-yl]-ethanol] |
| 277 | COc1cc2c(Oc3ccc(Nc4ccc(C(C)(C)C)cc4)cc3Cl)ccnc2cc1OCCCN1CCC(CCO)CC1 [Compound 314, 2-[1-(3-{4-[4-(4-Tert-butyl-phenylamino)-2-chloro-phenoxy]-6-methoxy-quinolin-7-yloxy}-propyl)-piperidin-4-yl]-ethanol] |
| 133 | COc1cc2c(Oc3ccc(NC(=O)NCCC(C)(C)C)cc3Cl)ccnc2cc1OCCN1CCC(CCO)CC1 [Compound 315, 1-[3-Chloro-4-(7-{2-[4-(2-hydroxy-ethyl)-piperidin-1-yl]-ethoxy}-6-methoxy-quinolin-4-yloxy)-phenyl]-3-(3,3-dimethyl-butyl)-urea] |
| 85.1 | COc1cc2c(Oc3ccc(NC(=O)NCCC(C)(C)C)cc3Cl)ccnc2cc1OCCCN1CCC(CCO)CC1 [Compound 316, 1-[3-Chloro-4-(7-{3-[4-(2-hydroxy-ethyl)-piperidin-1-yl]-propoxy}-6-methoxy-quinolin-4-yloxy)-phenyl]-3-(3,3-dimethyl-butyl)-urea] |
| 20.4 | COc1cc2c(Oc3ccc(NC(=O)NCCC(C)(C)C)c(Cl)c3)ccnc2cc1OCCCN1CC(C)OC(C)C1 (stereo not shown) [Compound 317, 1-(2-Chloro-4-{7-[3-(2,6-dimethyl-morpholin-4-yl)-propoxy]-6-methoxy-quinolin-4-yloxy}-phenyl)-3-(3,3-dimethyl-butyl)-urea] |
| 18.7 | COc1cc2c(Oc3ccc(NC(=O)NCCC(C)(C)C)cc3Cl)ccnc2cc1OCCCN1CCOCC1 [Compound 318, 1-{3-Chloro-4-[6-methoxy-7-(3-morpholin-4-yl-propoxy)-quinolin-4-yloxy]-phenyl}-3-(3,3-dimethyl-butyl)-urea] |
| 22 | COc1cc2c(Oc3ccc(NC(=O)NCCC(C)(C)C)cc3Cl)ccnc2cc1OCCCN1CC(C)OC(C)C1 (stereo not shown) [Compound 319, 1-(3-Chloro-4-{7-[3-(2,6-dimethyl-morpholin-4-yl)-propoxy]-6-methoxy-quinolin-4-yloxy}-phenyl)-3-(3,3-dimethyl-butyl)-urea] |
| 247 | COc1cc2nccc(Oc3ccc(NC(=O)NCCC(C)(C)C)cc3)c2cc1OCCCN1CCC(O)CC1 [Compound 322, 1-(3,3-Dimethyl-butyl)-3-(4-{6-[3-(4-hydroxy-piperidin-1-yl)-propoxy]-7-methoxy-quinolin-4-yloxy}-phenyl)-urea] |
| 373 | COc1cc2nccc(Oc3ccc(NC(=O)NCCC(C)(C)C)cc3)c2cc1OCCCN1CCC(CO)CC1 [Compound 323, 1-(3,3-Dimethyl-butyl)-3-(4-{6-[3-(4-hydroxymethyl-piperidin-1-yl)-propoxy]-7-methoxy-quinolin-4-yloxy}-phenyl)-urea] |
| 287 | COc1cc2nccc(Oc3ccc(NC(=O)NCCC(C)(C)C)cc3)c2cc1OCCCN1CCC(CCO)CC1 [Compound 324, 1-(3,3-Dimethyl-butyl)-3-[4-(6-{3-[4-(2-hydroxy-ethyl)-piperidin-1-yl]-propoxy}-7-methoxy-quinolin-4-yloxy)-phenyl]-urea] |
| 34.2 | COc1cc2c(Oc3ccc(NC(=O)NCCC(C)(C)C)c(F)c3)ccnc2cc1OCCCN1CC(C)OC(C)C1 (stereo not shown) [Compound 325, 1-(3,3-Dimethyl-butyl)-3-(4-{7-[3-(2,6-dimethyl-morpholin-4-yl)-propoxy]-6-methoxy-quinolin-4-yloxy}-2-fluoro-phenyl)-urea] |
| < 10 | COc1cc2c(Oc3ccc(NC(=O)NCCC(C)(C)C)cc3F)ccnc2cc1OCCCN1CCOCC1 [Compound 326, 1-(3,3-Dimethyl-butyl)-3-{3-fluoro-4-[6-methoxy-7-(3-morpholin-4-yl-propoxy)-quinolin-4-yloxy]-phenyl}-urea] |
| 20.6 | COc1cc2c(Oc3ccc(NC(=O)NCCC(C)(C)C)cc3F)ccnc2cc1OCCCN1CC(C)OC(C)C1 (stereo not shown) [Compound 327, 1-(3,3-Dimethyl-butyl)-3-(4-{7-[3-(2,6-dimethyl-morpholin-4-yl)-propoxy]-6-methoxy-quinolin-4-yloxy}-3-fluoro-phenyl)-urea] |
| 37 | COc1cc2c(Oc3ccc(NC(=O)NCCC(C)(C)C)cc3)ccnc2cc1OCCN(C)CCO [Compound 328, 1-(3,3-Dimethyl-butyl)-3-[4-(7-{2-[(2-hydroxy-ethyl)-methyl-amino]-ethoxy}-6-methoxy-quinolin-4-yloxy)-phenyl]-urea] |
| 20.8 | COc1cc2c(Oc3ccc(NC(=O)NCCC(C)(C)C)c(F)c3)ccnc2cc1OCCNCCO [Compound 329, 1-(3,3-Dimethyl-butyl)-3-(2-fluoro-4-{7-[2-(2-hydroxy-ethylamino)-ethoxy]-6-methoxy-quinolin-4-yloxy}-phenyl)-urea] |
| 17.8 | COc1cc2c(Oc3ccc(NC(=O)NCCC(C)(C)C)c(F)c3)ccnc2cc1OCCN(C)CCO [Compound 330, 1-(3,3-Dimethyl-butyl)-3-[2-fluoro-4-(7-{2-[(2-hydroxy-ethyl)-methyl-amino]-ethoxy}-6-methoxy-quinolin-4-yloxy)-phenyl]-urea] |
| 30.1 | COc1cc2c(Oc3ccc(NC(=O)NCCC(C)(C)C)c(Cl)c3)ccnc2cc1OCCNCCO [Compound 331, 1-(2-Chloro-4-{7-[2-(2-hydroxy-ethylamino)-ethoxy]-6-methoxy-quinolin-4-yloxy}-phenyl)-3-(3,3-dimethyl-butyl)-urea] |
| 10.8 | COc1cc2c(Oc3ccc(NC(=O)NCCC(C)(C)C)c(F)c3)ccnc2cc1OCCCNCCO [Compound 332, 1-(3,3-Dimethyl-butyl)-3-(2-fluoro-4-{7-[3-(2-hydroxy-ethylamino)-propoxy]-6-methoxy-quinolin-4-yloxy}-phenyl)-urea] |
| 9.4 | COc1cc2c(Oc3ccc(NC(=O)NCCC(C)(C)C)c(F)c3)ccnc2cc1OCCCN(C)CCO [Compound 333, 1-(3,3-Dimethyl-butyl)-3-[2-fluoro-4-(7-{3-[(2-hydroxy-ethyl)-methyl-amino]-propoxy}-6-methoxy-quinolin-4-yloxy)-phenyl]-urea] |
| 16.5 | COc1cc2c(Oc3ccc(NC(=O)NCCC(C)(C)C)c(Cl)c3)ccnc2cc1OCCCNCCO [Compound 334, 1-(2-Chloro-4-{7-[3-(2-hydroxy-ethylamino)-propoxy]-6-methoxy-quinolin-4-yloxy}-phenyl)-3-(3,3-dimethyl-butyl)-urea] |
| 95.3 | COc1cc2c(Oc3ccc(Nc4ccc(C(C)(C)C)cc4)c(F)c3)ccnc2cc1OCCN(CCO)CCO [Compound 335, 2-[(2-{4-[4-(4-Tert-butyl-phenylamino)-3-fluoro-phenoxy]-6-methoxy-quinolin-7-yloxy}-ethyl)-(2-hydroxy-ethyl)-amino]-ethanol] |
| 53 | COc1cc2c(Oc3ccc(Nc4ccc(C(C)(C)C)cc4)cc3F)ccnc2cc1OCCN(CCO)CCO [Compound 336, 2-[(2-{4-[4-(4-Tert-butyl-phenylamino)-2-fluoro-phenoxy]-6-methoxy-quinolin-7-yloxy}-ethyl)-(2-hydroxy-ethyl)-amino]-ethanol] |
| 252 | COc1cc2c(Oc3ccc(Nc4ccc(C(C)(C)C)cc4)c(Cl)c3)ccnc2cc1OCCN(CCO)CCO [Compound 337, 2-[(2-{4-[4-(4-Tert-butyl-phenylamino)-3-chloro-phenoxy]-6-methoxy-quinolin-7-yloxy}-ethyl)-(2-hydroxy-ethyl)-amino]-ethanol] |
| 16.6 | COc1cc2c(Oc3ccc(NC(=O)NCCC(C)(C)C)cc3Cl)ccnc2cc1OCCCN1CCC(O)CC1 [Compound 338, 1-(3-Chloro-4-{7-[3-(4-hydroxy-piperidin-1-yl)-propoxy]-6-methoxy-quinolin-4-yloxy}-phenyl)-3-(3,3-dimethyl-butyl)-urea] |
| 16.4 | COc1cc2c(Oc3ccc(NC(=O)NCCC(C)(C)C)cc3Cl)ccnc2cc1OCCCN1CCC(CO)CC1 [Compound 339, 1-(3-Chloro-4-{7-[3-(4-hydroxymethyl-piperidin-1-yl)-propoxy]-6-methoxy-quinolin-4-yloxy}-phenyl)-3-(3,3-dimethyl-butyl)-urea] |
| 18.3 | CCN(CCO)CCOc1cc2nccc(Oc3ccc(NC(=O)NCCC(C)(C)C)cc3)c2cc1OC [Compound 340, 1-(3,3-Dimethyl-butyl)-3-[4-(7-{2-[ethyl-(2-hydroxy-ethyl)-amino]-ethoxy}-6-methoxy-quinolin-4-yloxy)-phenyl]-urea] |
| 28.9 | CCN(CCO)CCOc1cc2nccc(Oc3ccc(NC(=O)NCCC(C)(C)C)c(F)c3)c2cc1OC [Compound 341, 1-(3,3-Dimethyl-butyl)-3-[4-(7-{2-[ethyl-(2-hydroxy-ethyl)-amino]-ethoxy}-6-methoxy-quinolin-4-yloxy)-2-fluoro-phenyl]-urea] |
| 11.6 | CCN(CCO)CCOc1cc2nccc(Oc3ccc(NC(=O)NCCC(C)(C)C)c(Cl)c3)c2cc1OC [Compound 342, 1-[2-Chloro-4-(7-{2-[ethyl-(2-hydroxy-ethyl)-amino]-ethoxy}-6-methoxy-quinolin-4-yloxy)-phenyl]-3-(3,3-dimethyl-butyl)-urea] |
| < 10 | CCN(CCO)CCCOc1cc2nccc(Oc3ccc(NC(=O)NCCC(C)(C)C)cc3)c2cc1OC [Compound 343, 1-(3,3-Dimethyl-butyl)-3-[4-(7-{3-[ethyl-(2-hydroxy-ethyl)-amino]-propoxy}-6-methoxy-quinolin-4-yloxy)-phenyl]-urea] |

| Compound | IC50 [nM] |
| --- | --- |
| COc1cc2c(Oc3ccc(NC(=O)NCCC(C)(C)C)c(Cl)c3)ccnc2cc1OCCCCN1CCOCC1 [Compound 320, 1-{2-Chloro-4-[6-methoxy-7-(4-morpholin-4-yl-butoxy)-quinolin-4-yloxy]-phenyl}-3-(3,3-dimethyl-butyl)-urea] | 21.4 |
| COc1cc2c(Oc3ccc(NC(=O)NCCC(C)(C)C)c(Cl)c3)ccnc2cc1OCCCCN1CC(C)OC(C)C1 (stereo not shown) [Compound 321, 1-(2-Chloro-4-{7-[4-(2,6-dimethyl-morpholin-4-yl)-butoxy]-6-methoxy-quinolin-4-yloxy}-phenyl)-3-(3,3-dimethyl-butyl)-urea] | 25.4 |
